Measurements as given in ChEMBL document CHEMBL1177755, “Bioactive xanthones from the stems of Cratoxylum formosum ssp. pruniflorum” (J Nat Prod, 2010).
Calls of active or inactive are those of the source. The calls are words filed in the database; no cut-off is given here.

Key:
CV-1 [1] = experiment: Inhibition of RXRalpha transcriptional activity in african green monkey CV1 cells co-expressing with TREpal-tkCAT at 10 uM by reporter gene assay; format: cell-based; details: Chlorocebus aethiops
CV-1 [2] = experiment: Inhibition of RXRalpha transcriptional activity in african green monkey CV1 cells co-expressing with TREpal-tkCAT by reporter gene assay; format: cell-based; details: Chlorocebus aethiops

SMILES	Activity (CV-1 [1])	Activity (CV-1 [2])
CC(C)=CCC/C(C)=C/Cc1c(O)c(O)cc2c(=O)c3c(O)c(CC=C(C)C)c(O)cc3oc12	Active	–
COc1cc2oc3cc(O)c(O)c(C/C=C(\C)CCC=C(C)C)c3c(=O)c2c(O)c1C/C=C(\C)CCC=C(C)C	Active	–
COc1cc2c(=O)c3c(O)cc(O)cc3oc2cc1O	Active	–
COc1c(O)ccc2oc3cccc(O)c3c(=O)c12	Active	Dose-dependent effect
COc1cc2oc3cc(O)c(O)c(CCC(C)(C)O)c3c(=O)c2c(O)c1CC=C(C)C	Active	Dose-dependent effect
CC(C)=CCc1c(O)c(CC=C(C)C)c2oc3cc(O)c(O)cc3c(=O)c2c1O	Active	–
CC(C)=CCC/C(C)=C/Cc1c(O)c(CC=C(C)C)c(O)c2c(=O)c3cc(O)c(O)cc3oc12	Active	–
COc1ccc(O)c2c(=O)c3cc(O)ccc3oc12	Active	–
COc1c(O)ccc2oc3c(O)ccc(O)c3c(=O)c12	Active	Dose-dependent effect
